Source: ChEMBL document CHEMBL1201862, “PubChem BioAssay data set” (2004)
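Results reflect a 48-hour exposure of cells in 96-well plates to compound at five concentrations. GI50 marks 50% less growth.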 The source made the active and inactive calls. Rule as the data show it: active = GI50 up to about 1.1 µM and inactive = higher.

What was measured:
Assay in all cases: NCI anticancer screen, dose series, 48 h
T47D = system: T47D
NCI-H460 = system: NCI-H460
HCT-15 = system: HCT-15
NCI-H226 = system: NCI-H226
Hs-578T = system: Hs-578T
HCT-116 = system: HCT-116
NCI/ADR-RES = system: NCI/ADR-RES
HOP-62 = system: HOP-62
RPMI-8226 = system: RPMI-8226
SK-MEL-5 = system: SK-MEL-5
OVCAR-4 = system: OVCAR-4
MOLT-4 = system: MOLT-4
HT-29 = system: HT-29
PC-3 = system: PC-3
IGROV-1 = system: IGROV-1
HCC 2998 = system: HCC 2998
K562 = system: K562
KM12 = system: KM12
SF-268 = system: SF-268
HL-60 = system: HL-60
ACHN = system: ACHN
A549 = system: A549
SW-620 = system: SW-620
786-0 = system: 786-0
A498 = system: A498
SF-539 = system: SF-539
SK-OV-3 = system: SK-OV-3
NCI-H522 = system: NCI-H522
MDA-MB-231 = system: MDA-MB-231
NCI-H23 = system: NCI-H23
OVCAR-8 = system: OVCAR-8
SR = system: SR
SNB-19 = system: SNB-19
SF-295 = system: SF-295
CCRF-CEM = system: CCRF-CEM
SN12C = system: SN12C
OVCAR-3 = system: OVCAR-3
LOX IMVI = system: LOX IMVI
DU-145 = system: DU-145
EKVX = system: EKVX
Malme-3M = system: Malme-3M
BT-549 = system: BT-549
CAKI-1 = system: CAKI-1
UACC-257 = system: UACC-257
TK-10 = system: TK-10
SK-MEL-28 = system: SK-MEL-28
MDA-N = system: MDA-N
UACC-62 = system: UACC-62
M14 = system: M14
MCF7 = system: MCF7
SNB-75 = system: SNB-75
MDA-MB-435 = system: MDA-MB-435
HOP-92 = system: HOP-92
COLO 205 = system: COLO 205
OVCAR-5 = system: OVCAR-5
SK-MEL-2 = system: SK-MEL-2
U-251 = system: U-251
UO-31 = system: UO-31
RXF 393 = system: RXF 393

## CN(N)c1cc(=O)[nH]c(=O)[nH]1
T47D
  GI50: > 100 µM (inactive)
NCI-H460
  GI50: > 100 µM (inactive)
HCT-15
  GI50: > 100 µM
NCI-H226
  GI50: > 100 µM (inactive)
Hs-578T
  GI50: 51.2 µM (inactive)
HCT-116
  GI50: > 100 µM (inactive)
NCI/ADR-RES
  GI50: > 100 µM (inactive)
HOP-62
  GI50: > 100 µM (inactive)
RPMI-8226
  GI50: > 100 µM (inactive)
SK-MEL-5
  GI50: > 100 µM (inactive)
OVCAR-4
  GI50: > 100 µM (inactive)
MOLT-4
  GI50: > 100 µM (inactive)
HT-29
  GI50: > 100 µM (inactive)
PC-3
  GI50: > 100 µM (inactive)
IGROV-1
  GI50: > 100 µM (inactive)
HCC 2998
  GI50: > 100 µM (inactive)
K562
  GI50: > 100 µM (inactive)
KM12
  GI50: > 100 µM (inactive)
SF-268
  GI50: > 100 µM (inactive)
HL-60
  GI50: 43.4 µM (inactive)
ACHN
  GI50: > 100 µM (inactive)
A549
  GI50: 54 µM (inactive)
SW-620
  GI50: > 100 µM (inactive)
786-0
  GI50: > 100 µM (inactive)
A498
  GI50: > 100 µM (inactive)
SF-539
  GI50: > 100 µM (inactive)
SK-OV-3
  GI50: > 100 µM (inactive)
NCI-H522
  GI50: > 100 µM (inactive)
MDA-MB-231
  GI50: > 100 µM (inactive)
NCI-H23
  GI50: > 100 µM (inactive)
OVCAR-8
  GI50: > 100 µM (inactive)
SR
  GI50: > 100 µM (inactive)
SNB-19
  GI50: > 100 µM (inactive)
SF-295
  GI50: > 100 µM (inactive)
CCRF-CEM
  GI50: > 100 µM (inactive)
SN12C
  GI50: > 100 µM (inactive)
OVCAR-3
  GI50: > 100 µM (inactive)
LOX IMVI
  GI50: > 100 µM (inactive)
DU-145
  GI50: > 100 µM (inactive)
EKVX
  GI50: > 100 µM (inactive)
Malme-3M
  GI50: > 100 µM (inactive)
BT-549
  GI50: 0.03 µM (active)
CAKI-1
  GI50: 6.22 µM (inactive)
UACC-257
  GI50: > 100 µM (inactive)
TK-10
  GI50: > 100 µM (inactive)
SK-MEL-28
  GI50: > 100 µM (inactive)
MDA-N
  GI50: > 100 µM (inactive)
UACC-62
  GI50: > 100 µM (inactive)

## COc1ccc(CC2C(=O)NC(C)C(=O)N(C)C3C(=O)N(C)C(Cc4ccc(O)c(c4)Oc4ccc(cc4)C3O)C(=O)NC(C)C(=O)NC(C)C(=O)N2C)cc1.COc1ccc(CC2C(=O)NC(C)C(=O)N(C)C3Cc4ccc(cc4)Oc4cc(ccc4O)CC(C(=O)NC(C)C(=O)NC(C)C(=O)N2C)N(C)C3=O)cc1 (centres undefined)
T47D
  GI50: 0.00446 µM (active)
NCI-H460
  GI50: 0.0413 µM (active)
M14
  GI50: 0.00582 µM (active)
HCT-15
  GI50: 0.483 µM
NCI-H226
  GI50: 0.00233 µM (active)
Hs-578T
  GI50: 0.01 µM (active)
HCT-116
  GI50: 0.00108 µM (active)
NCI/ADR-RES
  GI50: 1.5 µM (inactive)
MCF7
  GI50: 0.00215 µM (active)
SNB-75
  GI50: 0.01 µM (active)
HOP-62
  GI50: 0.0552 µM (active)
RPMI-8226
  GI50: 0.0019 µM (active)
SK-MEL-5
  GI50: 0.0168 µM (active)
OVCAR-4
  GI50: 0.0127 µM (active)
MOLT-4
  GI50: 0.01 µM (active)
HT-29
  GI50: 0.01 µM (active)
PC-3
  GI50: 0.00601 µM (active)
IGROV-1
  GI50: 0.01 µM (active)
HCC 2998
  GI50: 0.00619 µM (active)
K562
  GI50: 0.01 µM (active)
KM12
  GI50: 0.0024 µM (active)
SF-268
  GI50: 0.00316 µM (active)
HL-60
  GI50: 0.01 µM (active)
ACHN
  GI50: 0.0995 µM (active)
MDA-MB-435
  GI50: 0.004 µM (active)
A549
  GI50: 0.0177 µM (active)
SW-620
  GI50: 0.00718 µM (active)
HOP-92
  GI50: 0.00364 µM (active)
786-0
  GI50: 0.00771 µM (active)
A498
  GI50: 0.0282 µM (active)
SF-539
  GI50: 0.00102 µM (active)
SK-OV-3
  GI50: 0.0179 µM (active)
NCI-H522
  GI50: 0.01 µM (active)
MDA-MB-231
  GI50: 0.0115 µM (active)
NCI-H23
  GI50: 0.00552 µM (active)
OVCAR-8
  GI50: 0.0128 µM (active)
COLO 205
  GI50: 0.03 µM (active)
SR
  GI50: 0.01 µM (active)
SNB-19
  GI50: 0.000638 µM (active)
OVCAR-5
  GI50: 0.00995 µM (active)
SF-295
  GI50: 0.0274 µM (active)
CCRF-CEM
  GI50: 0.00177 µM (active)
OVCAR-3
  GI50: 0.01 µM (active)
LOX IMVI
  GI50: 0.00237 µM (active)
DU-145
  GI50: 0.00364 µM (active)
SK-MEL-2
  GI50: 0.00114 µM (active)
EKVX
  GI50: 0.148 µM (active)
BT-549
  GI50: 0.00321 µM (active)
CAKI-1
  GI50: 0.137 µM (active)
UACC-257
  GI50: 0.00322 µM (active)
U-251
  GI50: 0.0012 µM (active)
TK-10
  GI50: 0.0408 µM (active)
SK-MEL-28
  GI50: 0.00344 µM (active)
UO-31
  GI50: 0.136 µM (active)
UACC-62
  GI50: 0.00266 µM (active)

## C=C1CC[C@](C)(O)[C@@]2(C)CC[C@H]3C(=C(C)C)C(=O)C[C@]3(C)C[C@H]12
T47D
  GI50: 26.5 µM (inactive)
M14
  GI50: 37.5 µM (inactive)
HCT-15
  GI50: 14.9 µM
NCI-H226
  GI50: > 50 µM (inactive)
Hs-578T
  GI50: > 50 µM (inactive)
HCT-116
  GI50: 14.8 µM (inactive)
NCI/ADR-RES
  GI50: 27.7 µM (inactive)
MCF7
  GI50: 28.4 µM (inactive)
SNB-75
  GI50: 29 µM (inactive)
HOP-62
  GI50: > 50 µM (inactive)
RPMI-8226
  GI50: 17.9 µM (inactive)
SK-MEL-5
  GI50: 22.1 µM (inactive)
OVCAR-4
  GI50: > 50 µM (inactive)
MOLT-4
  GI50: 10.9 µM (inactive)
HT-29
  GI50: 18.3 µM (inactive)
PC-3
  GI50: 21.1 µM (inactive)
IGROV-1
  GI50: 14.7 µM (inactive)
HCC 2998
  GI50: 23 µM (inactive)
K562
  GI50: 8.73 µM (inactive)
KM12
  GI50: 21 µM (inactive)
SF-268
  GI50: > 50 µM (inactive)
HL-60
  GI50: 7.6 µM (inactive)
ACHN
  GI50: 42.8 µM (inactive)
MDA-MB-435
  GI50: 17.5 µM (inactive)
RXF 393
  GI50: 18.2 µM (inactive)
A549
  GI50: 42.6 µM (inactive)
SW-620
  GI50: 21.6 µM (inactive)
HOP-92
  GI50: > 50 µM (inactive)
786-0
  GI50: 14.6 µM (inactive)
A498
  GI50: > 50 µM (inactive)
SF-539
  GI50: > 50 µM (inactive)
SK-OV-3
  GI50: > 50 µM (inactive)
NCI-H522
  GI50: 14.3 µM (inactive)
MDA-MB-231
  GI50: > 50 µM (inactive)
NCI-H23
  GI50: > 50 µM (inactive)
OVCAR-8
  GI50: > 50 µM (inactive)
COLO 205
  GI50: 36.1 µM (inactive)
SR
  GI50: 13.4 µM (inactive)
SNB-19
  GI50: > 50 µM (inactive)
OVCAR-5
  GI50: > 50 µM (inactive)
SF-295
  GI50: > 50 µM (inactive)
CCRF-CEM
  GI50: 10.9 µM (inactive)
SN12C
  GI50: > 50 µM (inactive)
OVCAR-3
  GI50: 29.9 µM (inactive)
LOX IMVI
  GI50: 10.4 µM (inactive)
DU-145
  GI50: > 50 µM (inactive)
SK-MEL-2
  GI50: > 50 µM (inactive)
EKVX
  GI50: > 50 µM (inactive)
BT-549
  GI50: 25.8 µM (inactive)
CAKI-1
  GI50: 22.4 µM (inactive)
UACC-257
  GI50: > 50 µM (inactive)
U-251
  GI50: > 50 µM (inactive)
TK-10
  GI50: > 50 µM (inactive)
SK-MEL-28
  GI50: 43.7 µM (inactive)
UO-31
  GI50: 20 µM (inactive)
UACC-62
  GI50: 16.5 µM (inactive)
